Reference: patent US12370183B2, “Compositions and methods for treating malaria” (Rutgers, The State University of New Jersey, priority 2020, dated 2025)

Key:
[1] = system: DHODH deficient + Proguanil resistant Pf Dd2; test: P. falciparum (Dd2 strain) asexual blood stage assay, DHODH deficient + proguanil resistant; assay type: cell-based; conditions: Plasmodium falciparum, DD2, 72 h, read-out: DHODH deficient + Proguanil resistant Pf Dd2 IC50 (uM)
Protocol: (§1) Assays using human blood cells infected with Plasmodium falciparum: (Pf) parasites, both wild-type strains as well as mutant drug-resistant strains, were performed as described below. Wild-type strains used were aatB Pf (Dd2 strain) and Pf (Dd2 strain). Mutant strains used were proguanil resistant attb Pf (Dd2 strain), dihydroorotate dehydrogenase (DHODH) deficient aatB Pf (Dd2 strain), and DHODH deficient and proguanil resistant Pf (Dd2 strain).
(§2) 2008 Jul. 1; 105(26):9059-64.
(§3) Parasitemia was estimated by blood smear Giemsa stain and visual inspection under the microscopic.
(§4) The screening plate was prepared by centrifuging for parasite culture for 5 min at 800×g at RT (low brake) and removing supernatant. A parasite suspension was prepared with 0.3% parasitemia and 4% hematocrit in screening medium (SM). The suspension was gassed with a gas mixture of 1% oxygen, 3% carbon dioxide, 96% nitrogen and stored at 37° C. for until ready to use. […]
(§5) 2 μl of detection reagent mixture (10×SYBR Green I (Invitrogen) in Lysis buffer (20 mM Tris/HCl, 5 mM EDTA, 0.16% Saponin wt/vol, 1.6% Triton X vol/vol) was added. Assay plates were read from the bottom by using the 2104 EnVision® Multilabel Reader (PerkinElmer) (485 nm excitation, 530 nm emission). The results are presented in Table 5 below.

[2] = system: DHODH deficient Pf Dd2 mutant; test: P. falciparum (Dd2 strain) asexual blood stage assay, DHODH deficient mutant; assay type: cell-based, Plasmodium falciparum; conditions: for IC50: Plasmodium falciparum, DD2, 72 h, read-out: DHODH deficient Pf Dd2 mutant IC50 (uM)
Protocol: as §1, §2, §3
The screening plate was prepared by centrifuging for parasite culture for 5 min at 800×g at RT (low brake) and removing supernatant. A parasite suspension was prepared with 0.3% parasitemia and 4% hematocrit in screening medium (SM). The suspension was gassed with a gas mixture of 1% oxygen, 3% carbon dioxide, 96% nitrogen and stored at 37° C. for until ready to use. 50 nl of 1 mM compound in DMSO was prespotted into 1536 well plates (final drug conc. of 12.5 μM, final DMSO conc. of 0.625%) with the acoustic dispenser ATS. Controls were Artemisinin, Chloroquine, and DMSO. 8 μl of SM was dispensed into 1,536-well, black, clear-bottom plates (Greiner) using the MultiFlo™ Microplate dispenser (BioTek) (final parasitemia of 0.3% and 2.5% hematocrit in SM). The plates were incubated at 37° C. for 72 h with water-soaked tissue in a closed ziploc bag gassed with 1% oxygen, 3% carbon dioxide, 96% nitrogen.
as §5

[3] = system: P. berghei Luciferase sporozoites in HepG2-A16-CD81EGFP cells; test: P. berghei Luciferase liver stage assay; assay type: cell-based; conditions: Plasmodium berghei, 48 h after infection, bioluminescence, read-out: IC50 against sporozoite infection of liver cells (P. berghei Luciferase)
Protocol: Compounds 66 and 177 were tested for activity against sporozoite infection of liver cells as well the viability of liver schizonts of the murine Plasmodium berghei species transformed with Luciferase by using an assay adapted from S. Swann et al. (2016) High-Throughput Luciferase-Based Assay for the Discovery of Therapeutics That Prevent Malaria. ACS Infectious Diseases 2: 4. 281-293 (2016).
Compounds 66 and 177 were tested for activity against sporozoite infection of liver cells of the murine Plasmodium berghei species transformed with Luciferase by using the following P. berghei Luciferase liver stage assay.
Hepatic human transformed cells (HepG2) pre-treated for 18 hours with either compound 66 or 177 were infected with freshly dissected P. berghei Luciferase sporozoites. After another 48 hours of incubation with the compound, the viability of P. berghei exoerythrocytic forms (EEF) was measured by bioluminescence.
Plasmodium berghei Luciferase sporozoites were obtained by dissection of infected A. stephensi mosquito salivary glands supplied by the New York University Insectary. Dissected salivary glands were homogenized in a glass tissue grinder and filtered twice using Steriflip Vacuum-Driven Filtration System (20 μm pore size, Millipore) and counted using a hemocytometer. The sporozoites were kept on ice until needed. […]

Pf Dd2 = test: P. falciparum (Dd2 strain) asexual blood stage assay, Pf Dd2; assay type: cell-based; conditions: Plasmodium falciparum, DD2, 72 h, read-out: Pf Dd2 IC50 (uM)
Protocol: as §1, §2, §3, §4, §5

| Compound | IC50 [1] | IC50 [2] | IC50 [3] | IC50 (Pf Dd2) | potency against a dihydroorotate dehydrogenase (DHODH) deficient mutant ([2]; in words) |
| --- | --- | --- | --- | --- | --- |
| O=C(Nc1ccc(F)c(F)c1)c1c2c(nc3ccccc13)CCN(Cc1ccccc1)C2 [Compound 66, 2-Benzyl-N-(3,4-difluorophenyl)-1,2,3,4-tetrahydrobenzo[b][1,6]naphthyridine-10-carboxamide] | 0.028 µM | 0.0301 µM | > 50000 nM | 0.302 µM | – |
| O=C1c2c3c(nc4ccccc24)CCN(Cc2ccccc2)C3N1c1ccc(F)c(F)c1 (stereo not drawn) [Compound 177, 3-Benzyl-2-(3,4-difluorophenyl)-2a,3,4,5-tetrahydrobenzo[b]pyrrolo[4,3,2-de][1,6]naphthyridin-1(2H)-one] | 0.0103 µM | 0.006 µM | > 12500 nM | 0.0063 µM | undiminished potency |
